Measured values taken from patent US6555124B1, “Use of (meth)acrylic acid copolymers to increase the permeability of mucous membranes” (BASF Aktiengesellschaft, priority 1996, dated 2003).

Key:
caco-2 cell tissue = test: Permeation rate of tracer/test substances through caco-2 cell monolayers (Transwell) with polymer added apically
Description: (§1) This cell line forms on polycarbonate membranes a tissue assemblage which is very similar in appearance and protein composition to small intestinal […]. In the Transwell system (from Costar, Bodenheim, Germany), this artificial endothelial tissue separates two chambers, which are filled with medium, into the apical and the basolateral compartment. This design allows the permeation of a substance through the caco-2 tissue layer to be determined. […] An improvement in permeability is indicated by the reversible opening of the tight junctions.
(§2) Caco-2 cells were cultivated in DMEM (Dulbeccos Modified Eagle's Medium, from Gibco BRL, Eggenstein, Germany) with 10% FCS (fetal calf serum), 1% L-glutamine and 4.5 mg/ml glucose at 37° C. with 5% CO2 and 95% relative humidity. After trypsinization, the cells were spread at a density of 3×10^5 cells/cm^2 on transwell polycarbonate filters. Cells between the 30th and 50th passage were used to form monolayers. The monolayers were employed in the experiment 15-21 days (medium change every three days) after spreading of the cells.
(§3) Before the experiment, the caco-2 cell tissue was washed in the Transwell filter inserts with PBS (phosphate buffer saline). Then the apical compartment was filled with EBSS (Earl's buffered salt solution, pH 6) and the basolateral compartment was filled with DMEM. After addition of the polymer to be tested, which had been neutralized to pH 7, [Kollicoat® MAE 30D (ethyl acrylate/methacrylic acid 1:1, BASF), Eudragit® L100 (methacrylic acid/methyl methacrylate 1:1, Röhm), Eudragit® S100 (methacrylic acid/methyl methacrylate 1:2, Röhm)] in a concentration of 0.5-3% by weight and of the tracer substance into the apical compartment, samples were taken after 24 hours, and the permeation rate of the tracer substance was determined.
(§4) The experiments were analyzed by fluorescence spectrophotometry (Spex Fluorolog 1680: excitation wavelength: 488 nm, emission wavelength: 513 nm), and in the case of C22H32N6O4 by HPLC (column material: Vidac C-18; mobile phase: water/acetonitrile/0.1% trifluoroacetic acid; detection: 240 nm), the experimental results are compiled in Table 1. Measurements which were not done have been indicated by “−”.

in vitro = conditions: human, Caco-2, pH 6
Description: as §1, §2, §3, §4

Permeation rate (caco-2 cell tissue; human, Caco-2, 24 h, pH 6)	Papp A→B at 24 h (in vitro) [×10⁻⁶ cm/s]	Compound	Permeation rate (caco-2 cell tissue; Control (no polymer), caco-2 monolayer, apical EBSS pH 6, samples after 24 hours)	Permeation rate (caco-2 cell tissue; with Eudragit L 100 2.0% by weight (neutralized to pH 7) apical, 24 hours)	Permeation rate (caco-2 cell tissue; with Eudragit S 100 2.0% by weight (neutralized to pH 7) apical, 24 hours)	Permeation rate (caco-2 cell tissue; with Kollicoat MAE 30 D 0.5% by weight (neutralized to pH 7) apical, 24 hours)	Permeation rate (caco-2 cell tissue; with Kollicoat MAE 30 D 1.0% by weight (neutralized to pH 7) apical, 24 hours)	Permeation rate (caco-2 cell tissue; with Kollicoat MAE 30 D 1.5% by weight (neutralized to pH 7) apical, 24 hours)
–	–	O=C(CCCCCNC(=O)CCCC[C@@H]1SC[C@@H]2NC(=O)N[C@@H]21)NCCCCCNC(=S)Nc1ccc2c(c1)C(=O)OC21c2ccc(O)cc2Oc2cc(O)ccc21 [Fluorescein-biotin, (biotin-amidocaproylamido)-(pentylthioureidyl)-fluorescein]	2.3 (cm/sec) · 10^−8	4.8 (cm/sec) · 10^−8	7.1 (cm/sec) · 10^−8	2.3 (cm/sec) · 10^−8	5.8 (cm/sec) · 10^−8	20 (cm/sec) · 10^−8
56 (cm/sec) · 10^−8	0.56	N=C(N)c1ccc(CNC(=O)[C@@H]2CCCN2C(=O)[C@H](NCC(=O)O)C2CCCCC2)cn1 [C22H32N6O4, HOOC—CH2—(D)-Cha-Pro-NH-3-(6-Am)-Pico]	–	–	–	–	–	–
